Entries after “also recorded” stand apart in the source; their conditions may differ. Like-named read-outs stand apart in the source and are kept apart here.
Assays:
Type in all cases: cell-based
[1] = target: T1, parathyroid cell calcium receptor (Bos taurus, UniProt P35384); test: cell-based
T1 sequence (P35384 21-1085 limits assumed): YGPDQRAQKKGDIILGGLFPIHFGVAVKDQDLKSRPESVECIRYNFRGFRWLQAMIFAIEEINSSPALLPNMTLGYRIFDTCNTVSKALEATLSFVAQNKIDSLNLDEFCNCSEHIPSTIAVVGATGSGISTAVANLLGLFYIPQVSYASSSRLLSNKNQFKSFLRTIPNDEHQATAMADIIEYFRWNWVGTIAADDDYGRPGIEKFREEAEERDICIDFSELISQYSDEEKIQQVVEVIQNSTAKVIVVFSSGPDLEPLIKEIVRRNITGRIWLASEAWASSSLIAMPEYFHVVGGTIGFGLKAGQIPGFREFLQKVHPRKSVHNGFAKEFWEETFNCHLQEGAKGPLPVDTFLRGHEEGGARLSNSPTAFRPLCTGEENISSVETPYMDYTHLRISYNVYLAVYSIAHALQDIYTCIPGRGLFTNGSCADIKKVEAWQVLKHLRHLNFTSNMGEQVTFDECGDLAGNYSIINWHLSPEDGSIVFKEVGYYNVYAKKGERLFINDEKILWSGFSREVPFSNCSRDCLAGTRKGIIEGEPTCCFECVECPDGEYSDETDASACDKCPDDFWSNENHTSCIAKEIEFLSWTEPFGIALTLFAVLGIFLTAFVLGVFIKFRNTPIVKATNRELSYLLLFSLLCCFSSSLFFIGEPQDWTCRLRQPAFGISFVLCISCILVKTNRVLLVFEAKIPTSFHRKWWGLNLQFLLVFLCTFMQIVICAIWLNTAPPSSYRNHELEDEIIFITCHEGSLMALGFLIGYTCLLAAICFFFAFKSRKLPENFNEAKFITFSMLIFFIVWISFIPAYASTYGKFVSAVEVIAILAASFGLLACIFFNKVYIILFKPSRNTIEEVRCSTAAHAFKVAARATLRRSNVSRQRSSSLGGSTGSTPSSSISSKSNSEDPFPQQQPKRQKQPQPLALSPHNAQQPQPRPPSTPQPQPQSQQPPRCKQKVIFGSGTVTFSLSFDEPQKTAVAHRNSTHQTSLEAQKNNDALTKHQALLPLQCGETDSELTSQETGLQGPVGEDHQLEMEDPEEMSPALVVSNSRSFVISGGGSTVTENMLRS

C-cell calcium receptor = target: T2, C-cell calcium receptor (Rattus norvegicus, UniProt P48442); test: cell-based; details: for EC50: rMTC 6-23 cells
T2 construct: Neoplastic C-cells derived from a rat medullary thyroid carcinoma (rMTC 6-23) were obtained from American Type Culture Collection; host or cells: rMTC 6-23 cells
T2 sequence (P48442 20-1079): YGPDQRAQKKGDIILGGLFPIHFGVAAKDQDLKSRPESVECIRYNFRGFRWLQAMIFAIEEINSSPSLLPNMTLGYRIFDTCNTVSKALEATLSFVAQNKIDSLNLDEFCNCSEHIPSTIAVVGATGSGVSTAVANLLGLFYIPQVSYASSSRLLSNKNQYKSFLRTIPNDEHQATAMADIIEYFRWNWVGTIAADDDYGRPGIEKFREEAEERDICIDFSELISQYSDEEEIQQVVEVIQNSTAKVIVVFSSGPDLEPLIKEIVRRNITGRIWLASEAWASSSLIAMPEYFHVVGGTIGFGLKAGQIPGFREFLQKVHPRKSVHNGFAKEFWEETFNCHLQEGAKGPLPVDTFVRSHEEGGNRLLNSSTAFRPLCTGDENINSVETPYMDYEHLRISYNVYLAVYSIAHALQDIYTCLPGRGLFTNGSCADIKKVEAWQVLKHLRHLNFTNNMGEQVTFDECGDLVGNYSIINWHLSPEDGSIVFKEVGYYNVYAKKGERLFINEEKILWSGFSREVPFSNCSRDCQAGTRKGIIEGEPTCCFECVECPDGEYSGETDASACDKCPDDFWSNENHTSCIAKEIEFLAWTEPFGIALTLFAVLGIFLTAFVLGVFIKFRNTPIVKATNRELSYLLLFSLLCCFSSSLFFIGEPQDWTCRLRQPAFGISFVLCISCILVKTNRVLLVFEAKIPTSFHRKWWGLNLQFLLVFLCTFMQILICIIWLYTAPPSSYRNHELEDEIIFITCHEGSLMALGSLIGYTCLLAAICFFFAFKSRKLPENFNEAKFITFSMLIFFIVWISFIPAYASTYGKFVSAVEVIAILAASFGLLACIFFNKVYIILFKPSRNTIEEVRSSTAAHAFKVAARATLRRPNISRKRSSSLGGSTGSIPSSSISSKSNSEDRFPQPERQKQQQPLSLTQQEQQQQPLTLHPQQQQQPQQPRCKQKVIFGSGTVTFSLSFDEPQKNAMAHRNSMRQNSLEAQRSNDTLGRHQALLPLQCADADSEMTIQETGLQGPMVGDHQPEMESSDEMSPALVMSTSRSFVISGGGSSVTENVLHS
Excerpt: To assess the effects of molecular polycations on C-cells, a neoplastic cell line, derived from a rat medullary thyroid carcinoma (rMTC 6-23 cells) was used.

[2] = test system: osteoclast calcium receptor; test: [Ca^2+]i (indo-1) in rat osteoclasts
[3] = target: T3, bovine parathyroid cell calcium receptor (Bos taurus, UniProt P35384); test: Cl^- current in Xenopus oocytes expressing BoPCaR 1
T3 construct: expressed in transfected cells; host or cells: Xenopus laevis oocytes injected with cRNA from BoPCaR 1
T3 sequence (P35384 21-1085 limits assumed): T1 sequence (P35384 21-1085 limits assumed)
Protocol: These responses are mediated by the following series of biochemical events:
Xenopus oocytes were injected with BoPCaR 1, the 5.3 Kb cDNA encoding a bovine parathyroid cell calcium receptor as described in Example 25. After two to three days, Cl^- currents were examined in the oocytes using a two-electrode voltage clamp.
Xenopus oocytes were injected with BoPCaR 1 as described in Example 25. After two to three days, Cl^- currents were examined in the oocytes using two electrode voltage clamp.

## NCCCNCCCCNCCCNCCCNCCCNC(=O)Cc1c[nH]c2ccccc12 [NPS 019, reference compound]
[1]; Table 6, bovine parathyroid cells, read-out: EC50 PARATHYROID
  EC50: 40 µM
C-cell calcium receptor; 10 μM, 0.5 mM [Ca^2+]
  transient increase in [Ca^2+]i in C-cells: refractory to inhibition by La^3+
C-cell calcium receptor; Table 6, read-out: EC50 C-CELL
  EC50: 5 µM
C-cell calcium receptor; read-out: EC50 for mobilizing intracellular Ca^2+ in C-cells
  EC50: 5 µM
[2]; Table 6, rat osteoclasts
  EC50: > 300 µM
[3]
  Cl^- current response in absence of extracellular Ca^2+: persisted
[3]; 1 mM extracellular Ca^2+
  Cl^- current: oscillatory increases in the Cl^- current

## COc1cccc([C@@H](C)NCCCc2ccccc2Cl)c1 [NPS R-568, (R)-(+)-N-[3-(2-chlorophenyl)propyl]-α-methyl-3-methoxybenzylamine]
[1]; no extracellular Ca^2+, NPS R-467 30 μM
  [Ca^2+]i response in Ca^2+-free buffer: fails to evoke increases in [Ca^2+ ]i
[3]
  Cl^- current response in absence of extracellular Ca^2+: abolished
  effect on concentration-response curve of NPS 019: shifts the concentration-response curve of NPS 019 to the left
  effect on responses to submaximal extracellular Ca^2+: potentiated the responses

## NC[C@@H]1O[C@H](O[C@H]2[C@@H](O)[C@H](O[C@@H]3[C@@H](O)[C@H](N)C[C@H](N)[C@H]3O[C@H]3O[C@H](CN)[C@@H](O)[C@H](O)[C@H]3N)O[C@@H]2CO)[C@H](N)[C@@H](O)[C@@H]1O [Neomycin]
C-cell calcium receptor
  effect on basal [Ca^2+]i in C-cells: without effect on basal [Ca^2+ ]i
[2]
  effect on osteoclast response to extracellular Ca^2+: did not block the increase
  increase in [Ca^2+]i in osteoclasts: failed to evoke any increase in [Ca^2+ ]i; also recorded: Neither neomycin (10 mM) nor spermine (10 or 20 mM) caused increases
[2]; neomycin B 5 mM
  increase in [Ca^2+]i in osteoclasts or effect on basal: without effect on basal [Ca^2+ ]i
[3]; Ca^2+ 5 mM, Mg^2+ 1.0-20 mM, Gd^3+ 600 μM, neomycin 200 μM
  inward currents: large inward currents

— US5688938A, “Calcium receptor-active molecules” (priority 1995, dated 1997)
